Bridge positions count the residues as written; N and C are the ends. Peptide text beside a SMILES is read from it.
What was measured:
[1] = target: T1, PSA (Homo sapiens, UniProt P07288); experiment: Enzyme activity of PSA with chromogenic substrate S-2586; format: biochemical; design: PSA was purified from human seminal fluid as described previously (3); from tissue; host or cells: human seminal fluid; conditions: GST-peptides, S-2586; for minimum peptide concentration affecting the activity: PSA enzyme activity
Protocol: The enzyme activity of PSA was studied in the presence of peptides alone or together with Zn^2+ by using the chymotrypsin substrate S-2586 (MeO-Suc-Arg-Pro-Tyr-pNA) (Chromogenix, Mölndal, Sweden). […] PSA (333 nM) was incubated with a 1-100-fold molar excess of GST-peptide or 100-fold excess of synthetic peptide in TBS buffer, pH 7.8 containing 0.5 g/L BSA for 1 h at 22° C. The effect of Zn^2+ on the enzyme activity of PSA was studied by including 1-200 μM of ZnCl2 in the reaction buffer. The combined effect of peptides and Zn2+ on the enzyme activity of PSA was studied by incubating PSA (333 nM) with peptide (333 nM) in the buffer containing 1-200 μM Zn^2+ for 1 h. After addition of substrate to a final concentration 0.2 mM, the absorbance was monitored at 5-min intervals for 2 h at 405 nm on a Labsystems Multiskan MCC/340 photometer (Labsystems, Helsinki, Finland). As a control, the effect of wild type GST on the enzyme activity of PSA was tested.
In the experiments, PSA (0.33 μM) was incubated with increasing concentrations of GST-C-4 (0-100-fold molar excess) for 1 h, after which the chromogenic substrate S-2586 was added and enzyme activity was monitored by measuring the absorbance at 405 nm. Data represent mean values from duplicate wells ±SE.
PSA (0.33 μM) was incubated with chemically synthesized peptides (100-fold molar excess) for 1 h, after which the chromogenic substrate S-2586 was added and enzyme activity was monitored by measuring the absorbance at 405 nm.
Because zinc is known to inhibit the enzyme activity of PSA, we further characterized the effect of GST-peptides on the enzyme activity of PSA by assessing the combined effect of peptides and Zn^2+. […] The effect of GST-C-4 and Zn^2+ on enzyme activity was determined by incubating PSA (0.33 μM) with the same molar concentration of GST-C-4 and various concentrations of Zn^2+. The reaction was monitored by measuring absorbance at 405 nm after addition of the chromogenic substrate S-2586. […] Data represent mean values from duplicate wells ±SE.
(§1) Data represent mean values from duplicate wells ±SE.
As control the enzyme activity of PSA alone was measured.
as §1
20 μg of the peptide was iodinated by the Iodogen method. After iodination the peptide was purified by using C18 Sep-Pak column.

[2] = target: T1, PSA; experiment: Proteolytic cleavage of IGF-BP-3 by PSA, IGF-BP-3 IFMA; format: biochemical; design: PSA was purified from human seminal fluid as described previously (3); from tissue; host or cells: human seminal fluid; conditions: PSA 5 μg/mL, 100-fold molar excess of synthetic peptide, IGF-BP-3 70 ng/mL, 16 h at 37° C.; PSA alone 30%
Protocol: The extent of the cleavage of the substrate was quantitated by monitoring the decrease in IGF-BP-3 immunoreactivity due to proteolytic cleavage of it. PSA (5 μg/mL) was incubated with IGF-BP-3 (70 ng/mL) for 16 h at 37° C. with 100-fold molar excess of peptides to PSA and measured for IGF-BP3 immunoreactivity by IFMA as described (33). As control, the peptide was also added to the reaction mixture containing PSA and IGF-BP3 just before starting the immunoassay to quantify the possible interference of the peptide in the IFMA for IGF-BP-3.
In the experiments, PSA (5 μg/mL) in TBS buffer, pH 7.8 alone or with 100-fold molar excess of peptide was incubated with IGF-BP-3 (70 ng/mL) for 16 h at 37° C., after which the concentration of intact IGF-BP-3 was determined by IFMA.

T1 sequence (P07288 25-261): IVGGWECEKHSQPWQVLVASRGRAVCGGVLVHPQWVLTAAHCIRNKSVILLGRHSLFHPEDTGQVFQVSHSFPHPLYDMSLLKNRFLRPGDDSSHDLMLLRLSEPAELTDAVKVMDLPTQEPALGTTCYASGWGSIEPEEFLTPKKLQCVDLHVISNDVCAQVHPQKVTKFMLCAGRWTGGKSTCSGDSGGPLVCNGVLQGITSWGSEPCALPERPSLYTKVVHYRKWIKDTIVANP

Row | minimum peptide concentration affecting the activity [1] | cleavage of IGF-BP-3 by PSA in the presence of peptide [2] | Molecule | EC50 ([1]; PSA 0.33 μM, read-out: 50% stimulation (μM): peptide concentration required for half maximal stimulation of the enzyme activity of PSA)
1 | 300 nM |  | CC(C)C[C@@H]1NC(=O)[C@H](Cc2ccc(O)cc2)NC(=O)[C@H](CC(=O)O)NC(=O)[C@H](Cc2ccc(O)cc2)NC(=O)[C@H](CC(N)=O)NC(=O)[C@H](Cc2c[nH]cn2)NC(=O)[C@H](C)NC(=O)[C@H](Cc2ccccc2)NC(=O)[C@H](C(C)C)NC(=O)[C@@H](N)CSSC[C@@H](C(=O)O)NC(=O)[C@H](C(C)C)NC1=O [Peptide B-2] (H-CVFAHNYDYLVC-OH; disulfide 1-12; N-terminus assumed) | 
2 | 300 nM | about 70% | CVFTSDYAFC [Peptide A-1] | 2.2 µM
